The text below walks through data of patent publication US11578055B2, “Triazacyclododecansulfonamide (“TCD”)-based protein secretion inhibitors” (KEZAR LIFE SCIENCES, priority 2018, dated 2023).

Series [1] has as its system PD1 signal sequence plus 10 amino acids fused to Gaussia Luciferase (PD1-ss+10aa/Gaussia Luciferase). The series can be described thus: Dox Induced PD1-ss-Gluc Assay. Format: cell-based. To be noted: 24 hr, 293FRT/TO; read-out: 24 hr Dox Inducible PD1ssGluc 293FRT/TO: Mean IC50. From the text:
FIp-In 293 T-REx™ cells were transfected with pcDNA™5/FRT/TO plasmid inserted with cDNA encoding Gaussia Luciferase fused to the 3′ end of cDNA encoding PD1 signal sequence plus 10 amino acids (N-[…]-C) (SEQ ID NO: 1). Transfected cells were selected for resistance to the selectable markers Hygromycin and Blasticidin to create a stable cell line that contained the PD1-ss+10aa/Gaussia Luciferase cDNA insert whose expression was regulated under the T-REx™ system. The day before assay, cells were trypsinized and plated in 384-well tissue culture plates. The next day, compound dilutions in DMSO/media containing doxycycline were added to the wells and incubated at 37° C., 5% CO2.
(§1) For chemical structures that include one or more stereoisomers, but are illustrated without indicating stereochemistry, the assay data refers to a mixture of stereoisomers.

The subject of series [2] is full length TNFα (amino acids 1-233) fused to Gaussia Luciferase. Nature of the series: Dox Induced TNFα-FL-Gluc Assay. Format: cell-based. To be noted: 24 hr, 293FRT/TO; read-out: 24 hr Dox Inducible TNFaFLGluc 293FRT/TO: Mean IC50.
Description: FIp-In 293 T-REx™ cells were transfected with pcDNA™5/FRT/TO plasmid inserted with cDNA encoding Gaussia Luciferase fused to the 3′ end of cDNA encoding full length TNFα (amino acids 1-233). Transfected cells were selected for resistance to the selectable markers Hygromycin and Blasticidin to create a stable cell line that contained the TNFα-FL/Gaussia Luciferase cDNA insert whose expression was regulated under the T-REx™ system. The day before assay, cells were trypsinized and plated in 384-well tissue culture plates. The next day, compound dilutions in DMSO/media containing doxycycline were added to the wells and incubated at 37° C., 5% CO2.
as §1

Series [3] relates to multiple myeloma cell line NCl-H929. The series can be described thus: H929 Cell Viability Assay. To be noted: Homo sapiens, NCI-H929, 48 h. Type of series: cell-based, human. As to the method: The human multiple myeloma cell line NCl-H929 was cultured in Advanced RPMI 1640 media (Gibco®) supplemented with 6% fetal bovine serum, 2 mM Glutamine, and 1× Penicillin/Streptomycin. On the day of assay, cells were resuspended in RPMI 1640 media supplemented with 10% fetal bovine serum, 2 mM Glutamine, and 1× Penicillin/Streptmycin and plated in 384-well tissue culture plates and treated with compound dilutions in DMSO/media. Plates were incubated at 37° C., 5% CO2 for 48 hours. After 48 hours, Celltiter-Glo® (Promega) was added to each well and luciferase signal was quantified using Tecan Infinite M1000 Pro for cell viability determination.
as §1

In series [4] the test system is multiple myeloma cell line U266B1. Nature of the series: U266 Cell Viability Assay. Conditions: Homo sapiens, U-266, 48 hr. Type of series: cell-based, human. As to the method:
The human multiple myeloma cell line U266B1 was cultured in RPMI 1640 media supplemented with 10% fetal bovine serum, 2 mM Glutamine, and 1× Penicillin/Streptomycin. Cells were plated in 384-well tissue culture plates and treated with compound dilutions in DMSO/media. Plates were incubated at 37° C., 5% CO2 for 48 hours. After 48 hours, Celltiter-Glo® (Promega) was added to each well and luciferase signal was quantified using Tecan Infinite M1000 Pro for cell viability determination.
For chemical structures that include one or more stereoisomers, but are illustrated without indicating stereochemistry, the assay data refers to a mixture of stereoisomers

The nature of series [5]: In Vitro Microsome Stability Assay (human). Type of series: in vitro ADME. To be noted: human, 30 min, NADPH. As to the method: (§2) Potassium phosphate (423 μL of a 0.1 M solution) was added to 8-strip deep well tubes followed by human, mouse, rat, or monkey microsomes (25 μL of a 20 mg/mL solution). The tubes were then placed on ice and the test article (2 μL of a 0.25 mM solution in DMSO) was added. The mixture was preincubated at 37° C. for 3 to 5 minutes (shaking at 150 rpm) then the reaction was initiated by adding 50 μL NADPH. An aliquot of samples (100 μL) were collected at 0 and 30 min and 200 μL of an acetonitrile mixture containing IS (compound 914) was added to quench the reaction. After centrifuging for 10 min at 4000 rpm, a mixed solution of the 20 μL of the supernatant (20 μL) plus 100 μL ACN/H2O (1:1) were injected for LC-MS/MS analysis. Liver microsome stability is assessed by the % remaining of compound at 30 min which is calculated using the following equation: [(AUCanalyteT=30/AUCIS)/(AUCanalyteT=0/AUCIS)]*100
as §1

Series [6] in a line: In Vitro Microsome Stability Assay (mouse). Format: in vitro ADME. To be noted: mouse, 30 min, NADPH. As to the method: as §2, §1
Series [7] in a line: In Vitro Microsome Stability Assay (rat). Type of series: in vitro ADME. Conditions: rat, 30 min, NADPH. As to the method: as §2, §1
A short description of series [8]: In Vitro Microsome Stability Assay (monkey). Type of series: in vitro ADME. Conditions: monkey, 30 min, NADPH. The protocol: as §2, §1
Setting [9] is: H929, read-out: 48 hr H929 Viability Celltiter-Glo: Mean EC50.
[10] abbreviates: U266, read-out: 48 hr U266 Viability Celltiter-Glo: Mean EC50.

The structures appear in SMILES notation. Read-outs that look alike come from different tables or passages of the source.

As to `C=C1CN(S(=O)(=O)c2ccc(N(C)C)cc2)CCCN(CC2CCCCC2)CCCN(S(=O)(=O)N2CCC(Oc3ccccc3)CC2)C1` [A37, 4-{[9-(cyclohexylmethyl)-3-methylidene-5-[(4-phenoxypiperidin-1-yl)sulfonyl]-1,5,9-triazacyclododecan-1-yl]sulfonyl}-N,N-dimethylaniline], the IC50 in series [1] is 0.202 µM; in series [2], > 25 µM. Moreover, the EC50 in series [3] (setting [9]) and in series [4] (setting [10]) was > 25 µM throughout. Also, the “Liver Microsome Stability-% Left after 30 min w/ NADPH (%) Human” value (shortened to “Liver Microsome Stability-% Left … (%) Human”) in series [5] came out at 8.26%. For the same molecule, the “Liver Microsome Stability-% Left after 30 min w/ NADPH (%) Mouse” value (from here on “Liver Microsome Stability-% Left … (%) Mouse”) in series [6] was 6.03%. Moreover, the “Liver Microsome Stability-% Left after 30 min w/ NADPH (%) Rat” value (“Liver Microsome Stability-% Left … (%) Rat” below) in series [7] worked out at 13.5%. The “Liver Microsome Stability-% Left after 30 min w/ NADPH (%) Monkey” value (“Liver Microsome Stability-% Left … (%) Monkey” for short) in series [8] worked out at 5.69%.

On to `COc1cccc(S(=O)(=O)N2CCCN(CC3CCCCC3)CCCN(S(=O)(=O)N3CCCCC3)CC3(CC3)C2)c1` [A32, 9-(cyclohexylmethyl)-5-(3-methoxybenzenesulfonyl)-13-(piperidine-1-sulfonyl)-5,9,13-triazaspiro[2.11]tetradecane], for which the IC50 in series [1] and in series [2] was > 25 µM in each case. Also, the 50% effective concentration (EC50) in series [3] (setting [9]) and in series [4] (setting [10]) was > 25 µM in each case. The “Liver Microsome Stability-% Left … (%) Human” value in series [5] was 0.06%. The “Liver Microsome Stability-% Left … (%) Mouse” value in series [6] amounted to 0.51%. Further, in series [7], the “Liver Microsome Stability-% Left … (%) Rat” value is given as 0.27%. The “Liver Microsome Stability-% Left … (%) Monkey” value in series [8] stood at 0.09%.

Turning to `CN(C)c1ccc(S(=O)(=O)N2CCCN(CC3CCCCC3)CCCN(S(=O)(=O)N3CCCCC3)CC3(COC3)C2)cc1` [A17, 4-{[10-(cyclohexylmethyl)-14-(piperidine-1-sulfonyl)-2-oxa-6,10,14-triazaspiro[3.11]pentadecan-6-yl]sulfonyl}-N,N-dimethylaniline], the IC50 in series [1] was 0.943 µM; in series [2] it was > 25 µM. Besides, the concentration giving a half-maximal response (EC50) in series [3] (setting [9]) and in series [4] (setting [10]) was > 25 µM throughout. Also, the “Liver Microsome Stability-% Left … (%) Human” value in series [5] is 0.49%. Moreover, the “Liver Microsome Stability-% Left … (%) Mouse” value in series [6] is 0.41%. For the same molecule, in series [7], the “Liver Microsome Stability-% Left … (%) Rat” value came out at 1.06%. For the same molecule, the “Liver Microsome Stability-% Left … (%) Monkey” value in series [8] stood at 0.36%.

For the molecule `C=C1CN(S(=O)(=O)c2ccc(N(C)C)cc2)CCCN(CC2CCCCC2)CCCN(S(=O)(=O)N2CCC(c3cccc(Cl)c3)CC2)C1` [A58, 4-[(5-{[4-(3-chlorophenyl)piperidin-1-yl]sulfonyl}-9-(cyclohexylmethyl)-3-methylidene-1,5,9-triazacyclododecan-1-yl)sulfonyl]-N,N-dimethylaniline], the IC50 came to 0.0721 µM in series [1] and 8.5 µM in series [2]. Further, the concentration giving a half-maximal response (EC50) in series [3] (setting [9]) and in series [4] (setting [10]) was > 25 µM each time. The “Liver Microsome Stability-% Left … (%) Human” value in series [5] came to 31.6%. Also, the “Liver Microsome Stability-% Left … (%) Mouse” value in series [6] turned out to be 72.8%. Further, in series [7], the “Liver Microsome Stability-% Left … (%) Rat” value is 66.7%. The “Liver Microsome Stability-% Left … (%) Monkey” value in series [8] is recorded as 53.1%.

In the case of `C=C1CN(S(=O)(=O)c2ccc(N(C)C)cc2)CCCN(CC2CCCCC2)CCCN(S(=O)(=O)N2CCC(c3nc4ccccc4o3)CC2)C1` [A80, 4-[(5-{[4-(1,3-benzoxazol-2-yl)piperidin-1-yl]sulfonyl}-9-(cyclohexylmethyl)-3-methylidene-1,5,9-triazacyclododecan-1-yl)sulfonyl]-N,N-dimethylaniline], the IC50 is 0.273 µM in series [1] and > 25 µM in series [2]. In addition, the 50% effective concentration (EC50) in series [3] (setting [9]) and in series [4] (setting [10]) was > 25 µM in each case. In series [5], the “Liver Microsome Stability-% Left … (%) Human” value is listed as 10.8%. The “Liver Microsome Stability-% Left … (%) Mouse” value in series [6] turned out to be 13.4%. Moreover, the “Liver Microsome Stability-% Left … (%) Rat” value in series [7] is given as 14.1%. Moreover, in series [8], the “Liver Microsome Stability-% Left … (%) Monkey” value came out at 2.56%.

For `CN(C)c1ccc(S(=O)(=O)N2CCCN(CC3CCCCC3)CCCN(S(=O)(=O)N3CCC(C)(C)CC3)CC3(CC3)C2)cc1` [A26, 4-{[9-(cyclohexylmethyl)-13-[(4,4-dimethylpiperidin-1-yl)sulfonyl]-5,9,13-thazaspiro[2.11]tetradecan-5-yl]sulfonyl}-N,N-dimethylaniline], the IC50 in series [1] is 0.224 µM; in series [2], > 25 µM. Besides, the results for the EC50 in series [3] (setting [9]) and in series [4] (setting [10]) were 16.1 µM and > 25 µM, respectively. The “Liver Microsome Stability-% Left … (%) Human” value in series [5] is listed as 6.65%. In series [6], the “Liver Microsome Stability-% Left … (%) Mouse” value was 3.4%. The “Liver Microsome Stability-% Left … (%) Rat” value in series [7] stood at 1.84%. Also, the “Liver Microsome Stability-% Left … (%) Monkey” value in series [8] is listed as 0.13%.

`C=C1CN(S(=O)(=O)c2ccc(N(C)C)cc2)CCCN(CC2CCCCC2)CCCN(S(=O)(=O)N2CCC(n3cccn3)CC2)C1` [A79, 4-{[9-(cyclohexylmethyl)-3-methylidene-5-{[4-(1H-pyrazol-1-yl)piperidin-1-yl]sulfonyl}-1,5,9-triazacyclododecan-1-yl]sulfonyl}-N,N-dimethylaniline]: the IC50 in series [1] was 0.408 µM; in series [2] it was > 25 µM. Moreover, the EC50 in series [3] (setting [9]) and in series [4] (setting [10]) was > 25 µM throughout. Further, the “Liver Microsome Stability-% Left … (%) Human” value in series [5] amounted to 0.16%. Also, the “Liver Microsome Stability-% Left … (%) Mouse” value in series [6] is listed as 10.6%. Further, the “Liver Microsome Stability-% Left … (%) Rat” value in series [7] is listed as 0.1%. Besides, the “Liver Microsome Stability-% Left … (%) Monkey” value in series [8] was 0.06%.

Take `CN(C)c1ccc(S(=O)(=O)N2CCCN(CC3CCCCC3)CCCN(S(=O)(=O)N3CCC(O)CC3)CC3(CC3)C2)cc1` [A28, 1-{[9-(cyclohexylmethyl)-13-[4-(dimethylamino)benzenesulfonyl]-5,9,13-triazaspiro[2.11]tetradecan-5-yl]sulfonyl}piperidin-4-ol]: the IC50 in series [1] is 5.25 µM; in series [2], > 25 µM. Further, the EC50 (commonly the concentration that produces a half-maximal response) in series [3] (setting [9]) is 10.4 µM; in series [4] (setting [10]), > 25 µM. In series [6], the “Liver Microsome Stability-% Left … (%) Mouse” value is given as 0.06%. In series [7], the “Liver Microsome Stability-% Left … (%) Rat” value amounted to 0.14%. In addition, the “Liver Microsome Stability-% Left … (%) Monkey” value in series [8] is listed as 0.06%.

On to `COc1ccc(F)cc1N1CCN(S(=O)(=O)N2CCCN(CC3CCCCC3)CCCN(S(=O)(=O)c3ccc(N(C)C)cc3)C[C@H](C)C2)CC1` [A176], for which the concentration giving a half-maximal response (EC50) in series [3] (H929, Celltiter-Glo) was 3.11 µM; in series [4] (U266, Celltiter-Glo), > 25 µM.
